# Test results published in patent EP0514268A1, “Substituted amino acid azetidinyl pyridone derivatives, their preparation and use as medicines” (LABORATORIOS DEL DR. ESTEVE, S.A., priority 1991, dated 1992).
# How the values were obtained:
# [1] = tested on: Sal. typhimurium ATCC 14028; assay: Antimicrobial activity, agar dilution; format: cell-based, Salmonella typhimurium; details: Salmonella enterica, 20 h, Agar Dextrose dilutions, 37°C, 20 heures, read-out: Activité pharmacologique antimicrobienne (concentrations)
# Description: (§1) L'activité pharmacologique antimicrobienne de ces composés a été étudiée selon les références exposées ci-dessous.
# (§2) Activité pharmacologique antimicrobienne : G.L. Daquet et Y.A. Chabbect, techniques en bactériologie, Vol. 3, Flammarion Médecine-Sciences, Paris 1972, et W.B. Hugo et A.D. Rusell, Pharmaceutical Microbiology, Blackwell Scientific Publications, London, 1977.
# (§3) Milieu de culture et solvant : Agar d'antibiotiques n° 1 (Oxoid CM 327) Bouillon de triptone-soja (Oxoid CM 129) Solution Physiologique Ringer 1/4 (Oxoid BR 52) Agar Dextrose (BBL 11165)
# (§4) Microorganismes : "Bacillus subtilis" ATCC 6633 "Citrobacter freundii" ATCC 112606 "Enterobacter aerogenes" ATCC 15038 "Enterobacter cloacae" ATCC 23355 "Bacillus cereus" ATCC 1178 "Escherichia coli" ATCC 10799 "Escherichia coli" ATCC 23559 "Klebsiella pneumoniae" ATCC 10031 "Proteus vulgaris" ATCC 8427 "Morg. morganii" ATCC 8019 "Pseudomonas aeruginosa" ATCC 9721 "Pseudomonas aeruginosa" ATCC 10145 "Salmonella typhimurium" ATCC 14028 "Salmonella typhimurium" ATCC 6539 "Serratia marcescens" ATCC 13880 "Shigella flexnerii" ATCC 12022 "Staphylococcusepidermis" ATCC 155-1 "Staphylococcus aureus" ATCC 25178 "Streptococcus faecalis" ATCC 10541.
# (§5) Chacun des microorganismes est ensemencé par strie dans des tubes d'Agar d'antibiotiques n° 1, et mis en incubation pendant 20 heures à 37°C. Ensuite, on prend une anse de culture, on ensemence dans un bouillon de Triptone-soja et on incube pendant 20 heures à 37°C. On dilue à 1/4 la culture obtenue avec une solution physiologique Ringer, de façon à obtenir une suspension normalisée de […] pour chaque organisme.
# (§6) A partir d'une solution de 100 µg/ml, chaque produit est dilué dans l'Agar Dextrose (préalablement fondu et maintenu à 50°C) par dilutions successives de façon à obtenir les concentrations suivantes : 64-32-16-8-4-2-1-0,5-0,25-0,125 µg de dérivé/ml du milieu.
# (§7) Postérieurement, chaque concentration de chaque produit est répartie dans des boîtes de Petri de 10 cm de diamètre, à raison de 10 ml de milieu par boîte et autant de boîtes que de microorganismes à tester.
# (§8) Une fois le milieu refroidi, les boîtes sont ensemencées avec les inoculations à raison de 0,4 ml d'inoculation par boîte. On les étend avec une anse de Driglasky et on recueille le surnageant. Les boîtes ensemencées sont incubées à 37°C pendant 20 heures.
# (§9) Les résultats obtenus sont décrits dans les tableaux suivants. Les concentrations sont données en µg/ml.
# Staph. aureus ATCC 25178 = assay: Antimicrobial activity, agar dilution; format: cell-based, Staphylococcus aureus; details: Staphylococcus aureus, ATCC25178, 20 h, Agar Dextrose dilutions, 37°C, 20 heures, read-out: Activité pharmacologique antimicrobienne (concentrations)
# Description: as §1, §2, §3, §4, §5, §6, §7, §8, §9
# [2] = tested on: Kleb. pneumoniae ATCC 10031; assay: Antimicrobial activity, agar dilution; format: cell-based, Klebsiella pneumoniae; details: Klebsiella pneumoniae, ATCC10031, 20 h, Agar Dextrose dilutions, 37°C, 20 heures, read-out: Activité pharmacologique antimicrobienne (concentrations)
# Description: as §1, §2, §3, §4, §5, §6, §7, §8, §9
# [3] = tested on: Citr. freundii ATCC 11606; assay: Antimicrobial activity, agar dilution; format: cell-based, Citrobacter freundii; details: Citrobacter freundii, ATCC11606, 20 h, Agar Dextrose dilutions, 37°C, 20 heures, read-out: Activité pharmacologique antimicrobienne (concentrations)
# Description: as §1, §2, §3, §4, §5, §6, §7, §8, §9
# [4] = tested on: Ent. aerogenes ATCC 15038; assay: Antimicrobial activity, agar dilution; format: cell-based, Enterobacter aerogenes; details: Klebsiella aerogenes, ATCC15038, 20 h, Agar Dextrose dilutions, 37°C, 20 heures, read-out: Activité pharmacologique antimicrobienne (concentrations)
# Description: as §1, §2, §3, §4, §5, §6, §7, §8, §9
# Ent. cloacae ATCC 23355 = assay: Antimicrobial activity, agar dilution; format: cell-based, Enterobacter cloacae; details: Enterobacter cloacae, ATCC23355, 20 h, Agar Dextrose dilutions, 37°C, 20 heures, read-out: Activité pharmacologique antimicrobienne (concentrations)
# Description: as §1, §2, §3, §4, §5, §6, §7, §8, §9
# [5] = tested on: Serr. marcescens ATCC 13880; assay: Antimicrobial activity, agar dilution; format: cell-based, Serratia marcescens; details: Serratia marcescens, ATCC13880, 20 h, Agar Dextrose dilutions, 37°C, 20 heures, read-out: Activité pharmacologique antimicrobienne (concentrations)
# Description: as §1, §2, §3, §4, §5, §6, §7, §8, §9
# [6] = Solubility in water and at pH 7.4; format: physicochemical
# Description: Un grand nombre des composés de l'invention manifestent une augmentation de la solubilité dans l'eau ainsi que de la solubilité à pH 7,4 lorsqu'on compare avec les composés de référence. L'augmentation de solubilité au pH physiologique peut favoriser l'absorption du produit et la solubilité élevée dans l'eau permet l'administration du composé par voie parentérale.
# [7] = tested on: Strep. faecalis ATCC 10541; assay: Antimicrobial activity, agar dilution; format: cell-based, Streptococcus faecalis; details: Enterococcus faecalis, ATCC10541, 20 h, Agar Dextrose dilutions, 37°C, 20 heures, read-out: Activité pharmacologique antimicrobienne (concentrations)
# Description: as §1, §2, §3, §4, §5, §6, §7, §8, §9
# [8] = tested on: Ps. aeruginosa ATCC 10145; assay: Antimicrobial activity, agar dilution; format: cell-based; details: Pseudomonas aeruginosa, ATCC10145, 20 h, Agar Dextrose dilutions, 37°C, 20 heures, read-out: Activité pharmacologique antimicrobienne (concentrations)
# Description: as §1, §2, §3, §4, §5, §6, §7, §8, §9
# Sal. typhi ATCC 6539 = assay: Antimicrobial activity, agar dilution; format: cell-based; details: Salmonella enterica, 20 h, read-out: Activité pharmacologique antimicrobienne (concentrations)
# Description: as §1, §2, §3, §4, §5, §6, §7, §8, §9
# Ps. aeruginosa ATCC 9721 = assay: Antimicrobial activity, agar dilution; format: cell-based; details: Pseudomonas aeruginosa, ATCC9721, 20 h, Agar Dextrose dilutions, 37°C, 20 heures, read-out: Activité pharmacologique antimicrobienne (concentrations)
# Description: as §1, §2, §3, §4, §5, §6, §7, §8, §9
# [9] = tested on: Escherichia coli ATCC 10799; assay: Antimicrobial activity, agar dilution; format: cell-based; details: Escherichia coli, ATCC10799, 20 h, Agar Dextrose dilutions, 37°C, 20 heures, read-out: Activité pharmacologique antimicrobienne (concentrations)
# Description: as §1, §2, §3, §4, §5, §6, §7, §8, §9
# [10] = tested on: Staph. epidermidis ATCC 155-1; assay: Antimicrobial activity, agar dilution; format: cell-based; details: Staphylococcus epidermidis, ATCC155, 20 h, Agar Dextrose dilutions, 37°C, 20 heures, read-out: Activité pharmacologique antimicrobienne (concentrations)
# Description: as §1, §2, §3, §4, §5, §6, §7, §8, §9
# [11] = tested on: Bacillus subtilis ATCC 6633; assay: Antimicrobial activity, agar dilution; format: cell-based; details: ATCC6633, 20 h, Agar Dextrose dilutions, 37°C, 20 heures, read-out: Activité pharmacologique antimicrobienne (concentrations)
# Description: as §1, §2, §3, §4, §5, §6, §7, §8, §9
# [12] = tested on: Shigella flexnerii ATCC 12022; assay: Antimicrobial activity, agar dilution; format: cell-based; details: ATCC12022, 20 h, Agar Dextrose dilutions, 37°C, 20 heures, read-out: Activité pharmacologique antimicrobienne (concentrations)
# Description: as §1, §2, §3, §4, §5, §6, §7, §8, §9
# [13] = tested on: Bacillus cereus ATCC 11778; assay: Antimicrobial activity, agar dilution; format: cell-based; details: Bacillus cereus, ATCC11778, 20 h, Agar Dextrose dilutions, 37°C, 20 heures, read-out: Activité pharmacologique antimicrobienne (concentrations)
# Description: as §1, §2, §3, §4, §5, §6, §7, §8, §9
# [14] = tested on: Proteus vulgaris ATCC 8427; assay: Antimicrobial activity, agar dilution; format: cell-based; details: Proteus vulgaris, ATCC8427, 20 h, Agar Dextrose dilutions, 37°C, 20 heures, read-out: Activité pharmacologique antimicrobienne (concentrations)
# Description: as §1, §2, §3, §4, §5, §6, §7, §8, §9
# Morg. morganii ATCC 8019 = assay: Antimicrobial activity, agar dilution; format: cell-based; details: Morganella morganii, ATCC8019, 20 h, Agar Dextrose dilutions, 37°C, 20 heures, read-out: Activité pharmacologique antimicrobienne (concentrations)
# Description: as §1, §2, §3, §4, §5, §6, §7, §8, §9
# [15] = tested on: Escherichia coli ATCC 23559; assay: Antimicrobial activity, agar dilution; format: cell-based; details: Escherichia coli, ATCC23559, 20 h, Agar Dextrose dilutions, 37°C, 20 heures, read-out: Activité pharmacologique antimicrobienne (concentrations)
# Description: as §1, §2, §3, §4, §5, §6, §7, §8, §9
Compound,MIC [1] [µg/mL],MIC (Staph. aureus ATCC 25178) [µg/mL],MIC [2] [µg/mL],MIC [3] [µg/mL],MIC [4] [µg/mL],MIC (Ent. cloacae ATCC 23355) [µg/mL],MIC [5] [µg/mL],solubility ([6]; pH 7) [µg/mL],MIC [7] [µg/mL],MIC [8] [µg/mL],MIC (Sal. typhi ATCC 6539) [µg/mL],MIC (Ps. aeruginosa ATCC 9721) [µg/mL],MIC [9] [µg/mL],MIC [10] [µg/mL],MIC [11] [µg/mL],MIC [12] [µg/mL],MIC [13] [µg/mL],MIC [14] [µg/mL],MIC (Morg. morganii ATCC 8019) [µg/mL],MIC [15] [µg/mL],other results
C[C@@H]1[C@@H](NC(=O)[C@@H](C)N)CN1c1nc2c(cc1F)c(=O)c(C(=O)O)cn2C1CC1 [Exemple 4fa],4,1,8,4,4,4,16,> 500,1,> 16,4,> 16,4,0.25,0.5,1,1,8,8,1,solubility ([6]; water): > 500 µg/mL
"C[C@H]1[C@H](N)CN1c1nc2c(cc1F)c(=O)c(C(=O)O)cn2C1CC1 [Exemple 1a, acide 7-[(2S,3R)-2-méthyl-3-amino-1-azétidinyl]-1-cyclopropyl-6-fluoro-1,4-dihydro-4-oxo-1,8-naphtyridine-3-carboxylique, reference compound]",,,,,,,,16.5,,,,,,,,,,,,,solubility ([6]; water): 23 µg/mL
CCC[C@H](N)C(=O)NC1CN(c2nc3c(cc2F)c(=O)c(C(=O)O)cn3-c2ccc(F)cc2F)C1 [Exemple 4bN],1,4,0.12,1,1,0.5,2,,4,16,1,4,2,2,0.25,0.12,0.5,4,2,0.25,
"C[C@@H](N)C(=O)NC1(C)CN(c2c(F)cc3c(=O)c(C(=O)O)cn(C4CC4)c3c2F)C1 [Exemple 4ca, chlorhydratede l'acide 7-(3-méthyl-3-D-Ala-amino-1-azétidinyl)-1-cyclopropyl-6,8-difluoro-1,4-dihydro-4-oxo-3-quinoléinecarboxylique]",1,0.5,0.25,1,1,0.5,2,,8,16,0.5,4,1,0.5,0.25,0.25,1,2,1,0.5,
